The structures appear in SMILES notation.

This assay has as its target T1, 6His(GST)RORgamma-LBD (Homo sapiens, UniProt P51449).
T1 construct: the applied RORgamma-LBD contains a 6-His and GST tag; GST (N); made in house; host or cells: baculovirus-infected Sf-21 insect cells
T1 sequence (P51449 269-508 limits assumed): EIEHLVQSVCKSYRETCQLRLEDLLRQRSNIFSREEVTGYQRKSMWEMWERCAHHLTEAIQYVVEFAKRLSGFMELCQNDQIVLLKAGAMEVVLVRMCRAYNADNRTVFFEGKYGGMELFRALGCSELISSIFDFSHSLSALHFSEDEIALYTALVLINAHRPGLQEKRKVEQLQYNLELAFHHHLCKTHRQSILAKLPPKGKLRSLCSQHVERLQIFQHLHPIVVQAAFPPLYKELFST
In words: TR-FRET assay (Protocol A), RORgamma-LBD / SRC1_2 co-activator peptide interaction. It counts as biochemical. Particulars: SRC1_2 peptide 0.1 μM, RORgamma-LBD 10 nM, overnight incubation at 4° C. An excerpt: Activation of RORgammaT activity can be measured using e.g. biochemical TR-FRET assay. In such an assay, interaction of cofactor-derived peptides with human RORgammaT-Ligand Binding Domain (LBD) can be measured.
To identify novel antagonists of RORgammaT, an assay was developed which employs the interaction of RORgammaT with its co-activator peptide SRC1_2. […] The assay was run following three slightly different protocols, i.e. Protocol A, Protocol B, and Protocol C, which are described below.
TR-FRET Assay (Protocol A)
The 6His(GST)RORgamma-LBD was expressed and purified from baculovirus infected Sf-21 insect cells (Bac-to-BAC, Invitrogen) and purified using glutathione sepharose chromatography (GE healthcare). Biotin and His function as anchoring points for streptavidin-allophycocyanin (Strep-APC, Perkin Elmer, C130-100) and anti-His-Europium Cryptate (Perkin Elmer, AD0111), respectively. Since energy transfer between the streptavidin and His-coupled labels APC and europium cryptate can only take place when these labels are in close proximity, measurement of energy transfer in a mixture of biotinylated peptide, His-GR-LBD, streptavidin-APC and anti-His-Europium Cryptate will be indicative for RORy-LBD/peptide binding. […] Changes in peptide binding caused by dose-curves of compounds added to the reaction mixture (DMSO concentration 0.1%), can likewise be monitored.
Regarding `O=C(O)c1ccc(-c2nn(C(=O)c3c(Cl)cccc3Cl)c3ccccc23)cc1` [Example 1, 4-(1-(2,6-dichlorobenzoyl)-1H-indazol-3-yl)benzoic acid], the response was half-maximal at 10.7 nM (EC50).
On the same count and under the same terms, under `O=C(O)c1ccc(-c2nn(C(=O)c3c(Cl)cccc3Cl)c3ccc(F)cc23)cc1` [Example 2, 4-(1-(2,6-dichlorobenzoyl)-5-fluoro-1H-indazol-3-yl)benzoic acid] stands 245 nM.
`O=C(O)c1ccc(-c2nn(C(=O)c3c(Cl)cccc3Cl)c3c(F)cccc23)cc1` [Example 3, 4-(1-(2,6-dichlorobenzoyl)-7-fluoro-1H-indazol-3-yl)benzoic acid]: the EC50 is 18.6 nM.
Still for that read-out and setting: under `O=C(O)c1ccc(-c2nn(C(=O)c3c(Cl)cccc3Cl)c3cccc(F)c23)cc1` [Example 4, 4-(1-(2,6-dichlorobenzoyl)-4-fluoro-1H-indazol-3-yl)benzoic acid] stands 8.32 nM; under `O=C(O)c1ccc(-c2nn(C(=O)c3c(Cl)cccc3Cl)c3cc(F)ccc23)cc1` [Example 5, 4-(1-(2,6-dichlorobenzoyl)-6-fluoro-1H-indazol-3-yl)benzoic acid], 174 nM.
For `O=C(O)c1ccc(-c2nn(C(=O)c3c(Cl)cccc3Cl)c3cccnc23)cc1` [Example 6A, 4-(1-(2,6-dichlorobenzoyl)-1H-pyrazolo[4,3-b]pyridin-3-yl)benzoic acid], a half-maximal response (EC50) required 13.5 nM.
Same read-out and setting: the same measure for `O=C(O)c1ccc(-c2nn(C(=O)c3ccccc3C(F)(F)F)c3cccnc23)cc1` [Example 6B, 4-(1-(2-(trifluoromethyl)benzoyl)-1H-pyrazolo[4,3-b]pyridin-3-yl)benzoic acid]: 224 nM; for `O=C(O)c1ccc(-c2cn(C(=O)c3c(Cl)cccc3Cl)c3cccnc23)cc1` [Example 7, 4-(1-(2,6-dichlorobenzoyl)-1H-pyrrolo[3,2-b]pyridin-3-yl)benzoic acid]: 14.1 nM.
Same read-out and setting: the same measure for `O=C(O)c1ccc(-c2nn(C(=O)c3c(Cl)cccc3Cl)c3ccncc23)cc1` [Example 8, 4-(1-(2,6-dichlorobenzoyl)-1H-pyrazolo[4,3-c]pyridin-3-yl)benzoic acid]: 4900 nM.
Still for that read-out and setting: the same measure for `O=S(=O)(c1ccccc1C(F)(F)F)n1nc(-c2ccc(C(O)(C(F)(F)F)C(F)(F)F)cc2)c2ccccc21` [Example 9, 1,1,1,3,3,3-hexafluoro-2-(4-(1-(2-(trifluoromethyl)phenylsulfonyl)-1H-indazol-3-yl)phenyl)propan-2-ol]: 9330 nM; for `O=C(O)c1ccc(-c2nn(C(=O)c3c(Cl)cncc3Cl)c3ccccc23)cc1` [Example 11A, 4-(1-(3,5-dichloroisonicotinoyl)-1H-indazol-3-yl)benzoic acid]: 339 nM.
For `O=C(O)c1ccc(-c2nn(C(=O)c3ccccc3Br)c3ccccc23)cc1` [Example 11B, 4-(1-(2-bromobenzoyl)-1H-indazol-3-yl)benzoic acid], the EC50 was 44.7 nM.
The compound `COC(=O)c1ccccc1C(=O)n1nc(-c2ccc(C(=O)O)cc2)c2ccccc21` [Example 11C, 4-(1-(2-(methoxycarbonyl)benzoyl)-1H-indazol-3-yl)benzoic acid] gave an EC50 of 513 nM.
Compound `O=C(O)c1ccc(-c2nn(C(=O)C3CCCCC3)c3ccccc23)cc1` [Example 11D, 4-(1-(cyclohexanecarbonyl)-1H-indazol-3-yl)benzoic acid] gave an EC50 of 525 nM.
For `O=C(O)c1ccc(-c2nn(C(=O)c3c(Cl)cccc3Br)c3ccccc23)cc1` [Example 11E, 4-(1-(2-bromo-6-chlorobenzoyl)-1H-indazol-3-yl)benzoic acid], the EC50 is 26.9 nM.
Still for that read-out and setting: the same measure for `O=C(O)c1ccc(-c2nn(C(=O)c3c(F)cccc3C(F)(F)F)c3ccccc23)cc1` [Example 11F, 4-(1-(2-fluoro-6-(trifluoromethyl)benzoyl)-1H-indazol-3-yl)benzoic acid]: 39.8 nM.
In turn, `COc1cccc(F)c1C(=O)n1nc(-c2ccc(C(=O)O)cc2)c2ccccc21` [Example 11G, 4-(1-(2-fluoro-6-methoxybenzoyl)-1H-indazol-3-yl)benzoic acid] had an EC50 of 60.3 nM.
`O=C(O)c1ccc(-c2nn(C(=O)c3c(Cl)cc(Cl)cc3Cl)c3ccccc23)cc1` [Example 11H, 4-(1-(2,4,6-trichlorobenzoyl)-1H-indazol-3-yl)benzoic acid] showed an EC50 of 70.8 nM.
Still for that read-out and setting: under `Cc1cccc(C)c1C(=O)n1nc(-c2ccc(C(=O)O)cc2)c2ccccc21` [Example 11I, 4-(1-(2,6-dimethylbenzoyl)-1H-indazol-3-yl)benzoic acid] stands 72.4 nM; under `CCOc1ccccc1C(=O)n1nc(-c2ccc(C(=O)O)cc2)c2ccccc21` [Example 11J, 4-(1-(2-ethoxybenzoyl)-1H-indazol-3-yl)benzoic acid], 1910 nM; under `O=C(O)c1ccc(-c2nn(C(=O)c3cccc(Cl)c3Cl)c3ccccc23)cc1` [Example 11K, 4-(1-(2,3-dichlorobenzoyl)-1H-indazol-3-yl)benzoic acid], 21.4 nM.
The same measure, in the same setting: under `O=C(O)c1ccc(-c2nn(C(=O)c3ccccc3Cl)c3ccccc23)cc1` [Example 11L, 4-(1-(2-chlorobenzoyl)-1H-indazol-3-yl)benzoic acid] stands 26.3 nM; under `Cc1cccc([N+](=O)[O-])c1C(=O)n1nc(-c2ccc(C(=O)O)cc2)c2ccccc21` [Example 11N, 4-(1-(2-methyl-6-nitrobenzoyl)-1H-indazol-3-yl)benzoic acid], 25.7 nM.
In the case of `O=C(O)c1ccc(-c2nn(S(=O)(=O)c3ccccc3C(F)(F)F)c3ccccc23)cc1` [Example 12, 4-(1-(2-(trifluoromethyl)phenylsulfonyl)-1H-indazol-3-yl)benzoic acid], the pEC50 worked out at 7.17.
The compound `O=C(O)c1ccc(-c2nn(S(=O)(=O)c3cccc4cccnc34)c3ccccc23)cc1` [Example 13A, 4-(1-(quinolin-8-ylsulfonyl)-1H-indazol-3-yl)benzoic acid] had an EC50 of 155 nM.
For the compound `O=C(O)c1ccc(-c2nn(S(=O)(=O)c3ccccc3Br)c3ccccc23)cc1` [Example 13B, 4-(1-(2-bromophenylsulfonyl)-1H-indazol-3-yl)benzoic acid], the EC50 was 79.4 nM.
Same read-out and setting: under `O=C(O)c1ccc(-c2nn(S(=O)(=O)c3cc(Cl)ccc3Cl)c3ccccc23)cc1` [Example 13C, 4-(1-(2,5-dichlorophenylsulfonyl)-1H-indazol-3-yl)benzoic acid] stands 75.9 nM; under `Cc1c(Cl)cccc1S(=O)(=O)n1nc(-c2ccc(C(=O)O)cc2)c2ccccc21` [Example 13D, 4-(1-(3-chloro-2-methylphenylsulfonyl)-1H-indazol-3-yl)benzoic acid], 52.5 nM.
The compound `O=C(O)c1ccc(-c2nn(S(=O)(=O)c3cccc(Cl)c3Cl)c3ccccc23)cc1` [Example 13E, 4-(1-(2,3-dichlorophenylsulfonyl)-1H-indazol-3-yl)benzoic acid] gave an EC50 of 26.3 nM.
On the same count and under the same terms, under `O=C(O)c1ccc(-c2nn(S(=O)(=O)c3ccc(Cl)c(Cl)c3Cl)c3ccccc23)cc1` [Example 13F, 4-(1-(2,3,4-trichlorophenylsulfonyl)-1H-indazol-3-yl)benzoic acid] stands 166 nM.
Compound `N#Cc1ccccc1S(=O)(=O)n1nc(-c2ccc(C(=O)O)cc2)c2ccccc21` [Example 14, 4-(1-(2-cyanophenylsulfonyl)-1H-indazol-3-yl)benzoic acid] showed an EC50 of 1950 nM.
On the same count and under the same terms, under `O=C(O)c1ccc(-c2nn(S(=O)(=O)c3ccccc3OC(F)(F)F)c3ccccc23)cc1` [Example 15A, 4-(1-(2-(trifluoromethoxy)phenylsulfonyl)-1H-indazol-3-yl)benzoic acid] stands 275 nM; under `O=C(O)c1ccc(-c2nn(S(=O)(=O)c3cccc4ccccc34)c3ccccc23)cc1` [Example 15B, 4-(1-(naphthalen-1-ylsulfonyl)-1H-indazol-3-yl)benzoic acid], 182 nM.
Still for that read-out and setting: the same measure for `O=C(O)c1ccc(-c2nn(S(=O)(=O)c3cccc4nonc34)c3ccccc23)cc1` [Example 15D, 4-(1-(benzo[c][1,2,5]oxadiazol-4-ylsulfonyl)-1H-indazol-3-yl)benzoic acid]: 4470 nM; for `Cc1ccc(C#N)c(S(=O)(=O)n2nc(-c3ccc(C(=O)O)cc3)c3ccccc32)c1` [Example 15E, 4-(1-(2-cyano-5-methylphenylsulfonyl)-1H-indazol-3-yl)benzoic acid]: 513 nM; for `O=C(O)c1ccc(-c2nn(S(=O)(=O)c3ccccc3Cl)c3ccncc23)cc1` [Example 16, 4-(1-(2-chlorophenylsulfonyl)-1H-pyrazolo[4,3-c]pyridin-3-yl)benzoic acid]: 955 nM.
Compound `Cc1cc(C)cc(S(=O)(=O)n2nc(-c3ccc(C(=O)O)cc3F)c3ccccc32)c1` [Example 17, 4-(1-(3,5-dimethylphenylsulfonyl)-1H-indazol-3-yl)-3-fluorobenzoic acid] showed an EC50 of 1230 nM.

The term EC50 denotes the concentration that produces a half-maximal response. Read a low EC50 as higher potency in that assay. Broadly, the pEC50 is −log10 of the EC50, conventionally taken in molar units. Lower therefore signals a large EC50.
